According to PubChem BioAssay AID1259411 (Chemical Carcinogenesis Research Information System (CCRIS), 2018):
Calls of active or inactive are those of the source. How the calls were made is not given here.

Tested on: rodent carcinogenicity bioassays, tumor incidence
Assay: CCRIS carcinogenicity studies
Summary of the method: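 Archive of carcinogenicity, mutagenicity, tumor promotion and tumor inhibition results drawn from journals, NCI reports and other sources, expert-reviewed; covers 1985-2011 and is no longer updated.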

[Be]
carcinogen call (Species: RAT, Strain/Sex: WISTAR/FEMALE, Route: INTRATRACHEAL, Dose: 0, 0.5, 2.5 MG, SINGLE DOSE IN SALINE SUSPENSION, Tumor Site: Type of Lesion: LUNG): active; positive
carcinogen call (Species: RAT, Strain/Sex: WISTAR/FEMALE, Route: INTRATRACHEAL, Dose: 0.5, 2.5 MG/RAT IN SALINE SUSPENDED ONCE, Tumor Site: Type of Lesion: LUNG): active; positive

OC(c1ccc(Cl)cc1)(c1ccc(Cl)cc1)C(Cl)(Cl)Cl
carcinogen call (Species: MOUSE, Strain/Sex: B6C3F1/FEMALE, Route: ORAL, Dose: 0, 122, 243 PPM IN DIET, Dose: 0, 122, 243 PPM IN DIET): inactive; negative
carcinogen call (Species: MOUSE, Strain/Sex: B6C3F1/MALE, Route: ORAL, Dose: 0, 264, 528 PPM IN DIET, Dose: 0, 264, 528 PPM IN DIET, Tumor Site: Type of Lesion: LIVER: HEPATOCELLULAR CARCINOMA OR HEPATOCELLULAR ADENOMA): active; positive
carcinogen call (Species: RAT, Strain/Sex: OSBORNE-MENDEL/FEMALE, Route: ORAL, Dose: 0, 380, 760 PPM IN DIET, Dose: 0, 380, 760 PPM IN DIET): inactive; negative
carcinogen call (Species: RAT, Strain/Sex: OSBORNE-MENDEL/MALE, Route: ORAL, Dose: 0, 471, 942 PPM IN DIET, Dose: 0, 471, 942 PPM IN DIET): inactive; negative

c1ccc2cc3c4ccccc4c4ccccc4c3cc2c1
carcinogen call (Species: MOUSE, Strain/Sex: B6C3F1/MALE, Route: INTRAPERITONEAL, Dose: 0, 400 NMOL IN 35 µL DMSO ON DAYS 1 (1/7 TOTAL DOSE), 8 (2/7 TOTAL DOSE), AND 15 (4/7 TOTAL DOSE) AFTER BIRTH (STUDY DUR): inactive; negative

c1ccc2nc3ccccc3cc2c1
carcinogen call (Species: RAT, Strain/Sex: OSBORNE-MENDEL/FEMALE, Route: LUNG IMPLANT, Dose: 0, 0.2, 1.0, 5.0 MG IN BEESWAX/TRICAPRYLIN (STUDY DURATION: LIFETIME), Dose: 0, 0.2, 1.0, 5.0 MG IN BEESWAX/TRICAPRYLIN (STUDY DURATION: LIFETIME)): inactive; negative

Oc1ccc(Cl)cc1Cl
carcinogen call (Species: MOUSE, Strain/Sex: B6C3F1/FEMALE, Route: ORAL, Dose: 0, 5000, 10000 PPM IN FEED FOR 103 WK (STUDY DURATION: 104 WK), Dose: 0, 5000, 10000 PPM IN FEED FOR 103 WK (STUDY DURATION: 104 WK)): inactive; negative
carcinogen call (Species: MOUSE, Strain/Sex: B6C3F1/MALE, Route: ORAL, Dose: 0, 5000, 10000 PPM IN FEED FOR 103 WK (STUDY DURATION: 104 WK), Dose: 0, 5000, 10000 PPM IN FEED FOR 103 WK (STUDY DURATION: 104 WK)): inactive; negative
carcinogen call (Species: RAT, Strain/Sex: F344/FEMALE, Route: ORAL, Dose: 0, 2500, 5000 PPM IN FEED FOR 103 WK (STUDY DURATION: 104 WK), Dose: 0, 2500, 5000 PPM IN FEED FOR 103 WK (STUDY DURATION: 104 WK)): inactive; negative
carcinogen call (Species: RAT, Strain/Sex: F344/MALE, Route: ORAL, Dose: 0, 5000, 10000 PPM IN FEED FOR 103 WK (STUDY DURATION: 104 WK), Dose: 0, 5000, 10000 PPM IN FEED FOR 103 WK (STUDY DURATION: 104 WK)): inactive; negative

O=C(O)c1ccc(N=Nc2ccc(O)c(C(=O)O)c2)cc1
carcinogen call (Species: MOUSE, Strain/Sex: NMRI/FEMALE, Route: ORAL, Dose: 0, 100, 300, 900 MG/KG BW/D IN DIET FOR 107 WK (HIGH DOSE INCREASED TO 1800 MG/KG BW FROM WK 21) (STUDY DURATION: 107 WK, Dose: 0, 100, 300, 900 MG/KG BW/D IN DIET FOR 107 WK (HIGH DOSE INCREASED TO 1800 MG/KG BW FROM WK 21) (STUDY DURATION: 107 WK): inactive; negative
carcinogen call (Species: MOUSE, Strain/Sex: NMRI/MALE, Route: ORAL, Dose: 0, 100, 300, 900 MG/KG BW/D IN DIET FOR 120 WK (HIGH DOSE INCREASED TO 1800 MG/KG BW FROM WK 21) (STUDY DURATION: 120 WK, Dose: 0, 100, 300, 900 MG/KG BW/D IN DIET FOR 120 WK (HIGH DOSE INCREASED TO 1800 MG/KG BW FROM WK 21) (STUDY DURATION: 120 WK): inactive; negative
carcinogen call (Species: RAT, Strain/Sex: SPRAGUE-DAWLEY/MALE, Route: ORAL, Dose: 0, 300, 900, 2700 MG/KG BW/D IN DIET FOR 118 WK (HIGH DOSE REDUCED TO 1800 MG/KG BW FROM WK 68) (STUDY DURATION: 118 WK), Dose: 0, 300, 900, 2700 MG/KG BW/D IN DIET FOR 118 WK (HIGH DOSE REDUCED TO 1800 MG/KG BW FROM WK 68) (STUDY DURATION: 118 WK)): inactive; negative
carcinogen call (Species: RAT, Strain/Sex: SPRAGUE/DAWLEY/FEMALE, Route: ORAL, Dose: 0, 300, 900, 2700 MG/KG BW/D IN DIET FOR 119 WK (HIGH DOSE REDUCED TO 1800 MG/KG BW FROM WK 68) (STUDY DURATION: 119 WK), Dose: 0, 300, 900, 2700 MG/KG BW/D IN DIET FOR 119 WK (HIGH DOSE REDUCED TO 1800 MG/KG BW FROM WK 68) (STUDY DURATION: 119 WK)): inactive; negative

CCN(C)N=O
carcinogen call (Species: HAMSTER, Strain/Sex: SYRIAN/MALE, Route: GAVAGE, Dose: 0, 1.8 MG/KG 1/WK FOR 23-30 WK (TOTAL DOSE: 0; 0.53 MMOL) (STUDY DURATION: LIFETIME), Dose: 0, 1.8 MG/KG 1/WK FOR 23-30 WK (TOTAL DOSE: 0; 0.53 MMOL) (STUDY DURATION: LIFETIME), Tumor Site: Type of Lesion: LIVER: HEPATOCELLULAR CARCINOMA, HEPATOCELLULAR ADENOMA, CHOLANGIOCARCINOMA, CHOLANGIOMA, HEMANGIOSARCOMA, NASAL MUCOSA:): active; positive
carcinogen call (Species: RAT, Strain/Sex: F344/FEMALE, Route: GAVAGE, Dose: 0, 4.6 MG/WK FOR A TOTAL DOSE OF 1.4 MMOL (STUDY DURATION: 40 WK), Tumor Site: Type of Lesion: LIVER: TUMOR, LUNG: TUMOR): active; positive
carcinogen call (Species: RAT, Strain/Sex: F344/FEMALE, Route: INTRAVESICULAR, Dose: 0, 2.3 MG IN 0.2 ML ETHANOL: DEIONIZED WATER (1:3) 2/WK FOR 30 WK (TOTAL DOSE 1.6 MMOL) (STUDY DURATION: LIFESPAN), Tumor Site: Type of Lesion: LIVER: HEMANGIOSARCOMA, LUNG: TUMOR, KIDNEY: TUMOR, Tumor Site: Type of Lesion: LIVER: HEMANGIOSARCOMA, LUNG: TUMOR, KIDNEY: TUMOR): active; positive
carcinogen call (Species: RAT, Strain/Sex: F344/MALE, Route: GAVAGE, Dose: 0, 4.6 MG/WK FOR A TOTAL DOSE OF 1.6 MMOL (STUDY DURATION: 60 WK), Tumor Site: Type of Lesion: LIVER: TUMOR, LUNG: TUMOR, NASAL MUCOSA: TUMOR, Tumor Site: Type of Lesion: LIVER: TUMOR, LUNG: TUMOR, NASAL MUCOSA: TUMOR): active; positive

Cc1cccc(C)c1N
carcinogen call (Species: RAT, Strain/Sex: CD/FEMALE, Route: ORAL, Dose: 0, 300, 1000, 3000 PPM IN FEED FOR 102 WK (STUDY DURATION: 104 WK), Dose: 0, 300, 1000, 3000 PPM IN FEED FOR 102 WK (STUDY DURATION: 104 WK), Tumor Site: Type of Lesion: SUBCUTANEOUS TISSUE: FIBROMA, FIBROMA OR FIBROSARCOMA, NASAL CAVITY: PAPILLARY ADENOMA, ADENOMA OR PAPILLARY ADENOMA, CA): active; positive
carcinogen call (Species: RAT, Strain/Sex: CD/MALE, Route: ORAL, Dose: 0, 300, 1000, 3000 PPM IN FEED FOR 102 WK (STUDY DURATION: 104 WK), Dose: 0, 300, 1000, 3000 PPM IN FEED FOR 102 WK (STUDY DURATION: 104 WK), Tumor Site: Type of Lesion: SUBCUTANEOUS TISSUE: FIBROMA, FIBROMA OR NEUROFIBROMA, FIBROMA OR FIBROSARCOMA, NASAL CAVITY: PAPILLARY ADENOMA, CARCINO): active; positive
